From patent US20070105944A1, “Taxane metabolites” (priority 2002, published 2007)
“And” between values parts separate entries of the source, which are not always exact repeats. Equal entries are not always repeated.

Legend:
[1] = [14C]Compound I incubation with human liver microsomes (HLM), metabolite profile; assay type: in vitro ADME; conditions: 1 hr incubation, 37° C., 20 μM, NADPH
Method: (§1) Each mL of the incubation mixture, in 100 mM of potassium phosphate buffer (pH 7.4), contained: 20 nmol of test article, 1 mg of microsomal protens, 3 μmol of NADPH and 10 μmol of magnesium chloride. The final concentrations were: test article, 20 μM; microsomal proteins, 1 mg/mL; NADPH, 3 mM; magnesium chloride, 10 mM; acetonitrile, 1% (v/v). 7-EC (100 μM) was used as the positive control for enzyme activity in the microsomes of all species. Two negative controls, one without NADPH and the other using heat-treated microsomes (5 min in boiling water), were carried out to determine the stability of the test article. […]
(§2) Incubations were carried out aerobically at 37° C. with constant shaking. […] At the end of incubation, duplicate aliquots (10 μL) of the incubation mixture of the negative controls and the test article incubations were taken for liquid scintillation counting of radioactivity. […]
(§3) The radiochemical purity of [^14C]Compound I and the metabolite profiles of the compound in the methanol extract of liver microsomal incubations were determined by HPLC radiochromatograpby using the following system:
(§4) Fractions of the HPLC effluent were collected (0.25 min/fraction) into a 96-well deep luma plates and the collected fractions were dried using Savant Automatic SpeedVac system. Radioactivity was then determined with a Packard Top Count-NXT counter. […]

[2] = Biotransformation of [14C]Compound I in bile duct cannulated rats after a single oral dose; assay type: in vivo, rat; conditions: single 25-mg/kg oral dose
From the text: A single 25-mg/kg oral dose of [^14C] Compound I, as a solution in cremophore
EL/ethanol/water (10:10:80, v/v/v), was separately administered to two male bile duct cannulated (BDC) rats. Within 24 hr after dosing, an average of 25.8% of the administered dose was excreted in bile, The corresponding value in urine was 3.9%. […] Thus, the oral absorption of [^14C] Compound I in rats was estimated to be at least 30%. Following the oral dose, the concentration of total radioactivity in plasma was measurable up to 24 hr and averaged 349 ng-equiv./mL at that time. The parent drug was a prominent radioactive component in plasma. At 24 hr after dosing, the concentration of Compound I in plasma was estimated to be 61 ng/mL. More than 20 hydrolytic and oxidative metabolites of [^14C] Compound I were detected in plasma.
Bile duct and jugular vein cannulated (BDC/JVC) male Sprague-Dawley rats (Hla®: [SD] CVF®, 6-10 weeks old and weighing 300±50 g at dosing), were purchased from Hilltop Laboratories (Scottdale, Pa.). Upon receipt, each rat was marked on the tail and given an ear tag with a unique identification number.
The dosing solution was prepared as follows: 7.96 mg of non-radiolabeled Compound I, 10.16 mg of [^13C] Compound I and 2.99 mg of [^14C] Compound I (77.7 μCi of radioactivity) were weighed into a vial. The compounds were then dissolved in 1.6 mL of a cremophore EL/ethanol solution (1:1, v/v) and diluted with 6.4 mL of sterile water. The total weight of the dosing solution was 7.53 g. The concentration of [^14C] Compound I in the dosing solution was […] (10.32 μCi/g) of solution. The nominal specific activity was 3.68 μCi/mg (8170 dpm/μg).
Two rats, housed individually in Nalgene metabolic cages, were each given a single 25-mg/kg nominal dose of [^14C] Compound I orally by gavage. The actual amount of dosing solution administered to each animal was determined by weighing the loaded dosing syringe before dose administration and the emptied syringe after dose administration. Bile was collected from each animal between −1-0 (pre-dose), 0-6, 6-12, and 12-24 hr after dosing. Urine was collected between −24-0 (predose), 0-12, and 12-24 hr after dosing. Both the bile and urine samples were collected in tubes set on dry ice. At 0.5, 6, and 12 hr after dosing, blood samples (−1.2 mL) were collected from the jugular vein cannula into a heparinized syringe. At 24 hr after dosing, animals were sacrificed by CO2 asphyxiation. Terminal blood was collected by cardiac puncture into a heparinized vacutainer. Predose blood sample was collectd from a separate control animal. Blood was centrifuged at 2,500 rpm and 4° C. for 10 min to separate the plasma. Bile, urine, and plasma samples were weighed and stored at −20° C. prior to analysis.
Concentrations of radioactivity in bile, urine, and plasma samples were determined by counting duplicate aliquots of each sample in 5 mL of Ready Value™ cocktail (Beckman Instrunents, Inc.) with a Beckman LS 3801, LS 5000TD, or LS6000TA Liquid Scintillation Counter for 10 min or until the 2-sigma error was less than or equal to 2%, whichever came first. Quench correction was performed using an external standard method. Most of the HPLC fractions used to prepare reconstructed HPLC chromatograms were counted for 5 minutes except for plasma samples, which were counted for 10 minutes.
A portion (−20% of each sample) of the 0-6, 6-12, and 12-24 hr bile samples from two rats were pooled by interval to prepare three pooled samples. A portion (−20% of each sample) of the 0-6, 6-12, and 12-24 hr bile samples from two rats were pooled together to prepare a 0-24 hr sample. Duplicate 10-μL aliquots of each pooled sample were taken for radioactivity counting.
A portion (−20% of each sample) of the 0-12 and 12-24 hr urine samples from two rats were pooled by interval to prepare two pooled samples. […]

[3] = Rank order of metabolic stability in liver microsomes of the five species; assay type: in vitro ADME; conditions: 1 hr incubation
Method: Each mL of the incubation mixture, in 100 mM of potassium phosphate buffer (pH 7.4), contained: 20 nmol of test article, 1 mg of microsomal protens, 3 μmol of NADPH and 10 μmol of magnesium chloride. The final concentrations were: test article, 20 μM; microsomal proteins, 1 mg/mL; NADPH, 3 mM; magnesium chloride, 10 mM; acetonitrile, 1% (v/v). 7-EC (100 μM) was used as the positive control for enzyme activity in the microsomes of all species. Two negative controls, one without NADPH and the other using heat-treated microsomes (5 min in boiling water), were carried out to determine the stability of the test article. The total volume of incubation mixture was 5 mL each for the test article incubations and 1 mL each for the positive and negative controls.
as §2, with “shaking. Incubation mixtures were prepared at 0-4° C. (on ice).” for “shaking.”
[^14C]Compound I was separately incubated with mouse, rat, dog, monkey and human liver microsoomes fortified with NADPH for 1 hr at 37° C. The incubation mixtures were extracted with methanol and the extacts were analyzed by HPLC radiochromatograpby and LC/RAM/(+)ESI-MS and MS/MS.

[4] = [14C]Compound I incubation with dog liver microsomes (DLM), metabolite profile; assay type: in vitro ADME; conditions: 1 hr incubation, 37° C., 20 μM, NADPH
Method: as §1, §2, §3, §4

[5] = [14C]Compound I incubation with monkey liver microsomes (MKLM), metabolite profile; assay type: in vitro ADME; conditions: 1 hr incubation, 37° C., 20 μM, NADPH
Method: as §1, §2, §3, §4

[6] = [14C]Compound I incubation with rat liver microsomes (RLM), metabolite profile; assay type: in vitro ADME; conditions: 1 hr incubation, 37° C., 20 μM, NADPH
Method: as §1, §2, §3, §4

[7] = [14C]Compound I incubation with mouse liver microsomes (MLM), metabolite profile; assay type: in vitro ADME; conditions: 1 hr incubation, 37° C., 20 μM, NADPH
Method: as §1, §2, §3, §4

tumors = conditions: Proc Am Assoc Cancer Res 1999 40 Abs 1905; cited from earlier work
[8] = prior art; cited from earlier work
human tumor xenografts = test: Oral paclitaxel against human tumor xenografts in athymic mice or rats; conditions: human tumor xenografts implanted in athymic mice or athymic rats
[9] = up to 160 mg/kg/day, Suffness et al.; cited from earlier work
[10] = oral; quote from WO98/53811; cited from earlier work
sc M109 = assay type: in vivo; conditions: oral doses as high as 160 mg/kg/inj, murine tumor models (sc M109)
From the text: […]; see Eiseman et al., Second NCI Workshop on Taxol and Taxus (September 1992); Suffness et.al. in TAXOL Science and Applications (CRC Press 1995). […]. Another report by J. Terwogt et. al. from The Lancet, Jul. […] […].

[11] = BDC rats, within 24 hr, average of two rats, total radioactivity

COC(=O)O[C@@]12CO[C@@H]1C[C@H](O)[C@@]1(C)C(=O)[C@H](OC(C)=O)C3=C(C)[C@@H](OC(=O)[C@H](O)[C@@H](NC(=O)OC(C)(C)C)C(C)(C)C)C[C@@](O)([C@@H](OC(=O)c4ccccc4)C12)C3(C)C (some centres unmarked) [Compound I, 3′-tert-butyl-3′-N-tert-butyloxycarbonyl-4-deacetyl-3′-dephenyl-3′-N-debenzoyl-4-O-methoxycarbonyl-paclitaxel]
parent drug in the incubation mixture recovered unchanged [1]: 21.4% | total recovery of the administered dose in bile and urine ([2]; BDC rats, 24 hr, average): 29.6% | administered dose excreted in bile [2, 11]: 25.8% | administered dose excreted in urine [2, 11]: 3.9% | concentration at 24 h ([2]; male, Sprague-Dawley, rat, rats, at 24 hr after dosing, pooled plasma, read-out: concentration of Compound I in plasma (estimated)): 61 ng/mL | parent drug detected in bile, % of total radioactivity ([2]; rats, 0-24 h pooled bile): < 1% | concentration of total radioactivity in plasma ([2]; rats, at 24 hr, average): 349 ng-equiv./mL | oral absorption (estimated) ([2]; rats, from bile and urine recovery): at least 30% | parent drug detected in urine ([2]; rats, pooled urine): ≤ 1% | rank order of metabolic stability in the liver microsomes of the five species [3]: rat>dog>mouse>human>monkey | parent drug in the incubation mixture remained unchanged [4]: 59.7% and 58.7% | parent drug in the incubation mixture remained unchanged [5]: 2.9% | parent drug in the incubation mixture remained unchanged [6]: 72.5% | parent drug in the incubation mixture remained unchanged [7]: 31.5%

CC(=O)O[C@H]1C(=O)[C@@]2(C)[C@H]([C@H](OC(=O)c3ccccc3)[C@]34OC(=O)O[C@H]3[C@H](OC(=O)[C@H](O)[C@H](CC(C)C)NC(=O)OC(C)(C)C)C(C)=C1C4(C)C)[C@]1(OC(C)=O)CO[C@@H]1C[C@@H]2O [IDN-5109]
activity against tumors in mice after oral administration (tumors): oral activity

O=C(O)CNC(=O)c1ccccc1 [Metabolite M3, hippuric acid]
% of the dose in urine accounted for by metabolite(s) ([2]; rats, 0-24 hr pooled urine): ~2.3% | % of total radioactivity in urine accounted for by metabolite(s) ([2]; rats, 0-24 hr pooled urine): ~56% and ~60%

CC(=O)O[C@@]12CO[C@@H]1C[C@H](O)[C@@]1(C)C(=O)[C@H](O)C3=C(C)[C@@H](OC(=O)[C@H](O)[C@@H](NC(=O)OC(C)(C)C)c4ccccc4)C[C@@](O)([C@@H](OC(=O)c4ccccc4)[C@H]21)C3(C)C [TAXOTERE®, docetaxel]
oral activity in human or animal models [8]: no oral activity

CC(=O)O[C@H]1C(=O)[C@@]2(C)[C@H]([C@H](OC(=O)c3ccccc3)[C@]3(O)C[C@H](OC(=O)[C@H](O)[C@@H](NC(=O)c4ccccc4)c4ccccc4)C(C)=C1C3(C)C)[C@]1(OC(C)=O)CO[C@@H]1C[C@@H]2O [paclitaxel]
attempts to demonstrate activity for orally administered drug (human tumor xenografts): unsuccessful | oral activity in human or animal models [8]: no oral activity | antitumor activity on oral administration [9]: no evidence of antitumor activity | absorbed when administered orally [10]: less than 1% | efficacy after oral dosing (sc M109): without signs of any efficacy
